US10195220B2, “Hydrogen sulphide compounds” (Aston University, priority 2013, dated 2019)

Columns and labels:
rat = conditions: chronic administration; cited from earlier work
[1] = test system: first trimester human placental explants; assay: Angiogenic factor release from first trimester placental villus explants (ELISA of conditioned medium); type: cell-based; conditions: increasing concentration of PAG over 24 hours
Text: Institutional Ethics Committee approved the blood and tissue collection and written informed consent was obtained. We analysed blood samples from women with singleton pregnancies recruited in the Low- and High-Risk Clinics and Labour and Delivery Unit. All women were followed prospectively from enrolment until delivery. Human placental tissues were collected from pregnancies complicated by preeclampsia and uncomplicated pregnancies delivered by elective Caesarean. Samples of placental tissue were processed for RNA extraction and maternal plasma from the same patients (n=14 PE and n=14 control) were used for analysis. From another set of patients placenta (n=5 PE and n=5 control) was collected for the immunohistochemical study. Preeclampsia was defined as blood pressure >140/90 mm Hg on at least 2 consecutive measurements and maternal proteinuria of at least 300 mg/24 h. First trimester placental tissues (6-9 weeks gestational age) were retrieved from normal pregnancies that had undergone elective termination. Villus explants were prepared as described previously.^29 Briefly, human placental villus explants were incubated with or without PAG for 24 hours, and conditioned media collected and assayed for sFlt-1 or sEng and PlGF.
(§1) Enzyme-linked immunosorbent assay (ELISA) kits for human and murine soluble Flt-1, soluble endoglin and PlGF were obtained from R&D Systems and performed according to the manufacturer's specifications.
Angiogenic factors produced by placenta are important in regulating placental vascular development.^33 Imbalance of pro- and anti-angiogenic factors generated by the placenta^29 may account for the widespread maternal endothelial dysfunction in preeclampsia.^34 To investigate whether reduced levels of CSE has any effect on the production of placental angiogenic factor production, sFlt-1, sEng, and PlGF levels were measured in conditioned medium from first trimester human placental explants in the presence of increasing concentration of CSE inhibitor PAG over 24 hours.

pregnant C57Bl6/J mice = assay: CSE inhibition in pregnant mice (PAG, with or without GYY4137); type: in vivo
Method: Eight to ten week old C57/black6 mice were mated. The first day of pregnancy (E0.5) was defined by the presence of a vaginal plug the following morning. Pregnant mice were randomly assigned into four groups: (i) saline (vehicle control), (ii) 25 mg/kg DL-propargylglycine (PAG; Sigma, Poole, U.K.), (iii) 50 mg/kg group PAG and (iv) 50 mg/kg
PAG with 0.25 mg/kg of slow-releasing H2S donor, GYY4137(Sigma). Mice were injected intraperitoneally (i.p.) with saline or PAG from E8.5. Blood pressure was measured by tail cuff-plethysmography. Mice were trained for measurement on alternate days from E4.5. Alternatively, mice were anesthetized by Ketamine/Xylazine cocktail. The carotid artery was isolated and cannulated with a 3-Fr high-fidelity microtip catheter connected to a pressure transducer (Millar Instruments, Houston, Tex., USA). Blood pressure was recorded and averaged over a 10-minute period. On E17.5, after blood pressure measurement and blood sample collection the animals were sacrificed and kidney, liver, and placenta were collected. The un-absorbed fetuses and placentas were counted and weighed.
Kidney, liver, and placenta were immersion fixed in 4% paraformaldehyde for 24 hours and processed to paraffin. A series of 5-μm sections were cut and processed for hematoxylin & eosin (H&E) staining.
as §1
Serial 3-5-μm sections of formalin-fixed, paraffin-embedded human and murine placental tissue were prepared for immunohistochemistry as previously described.^29 Biotin-labelled isolectin B4, anti-CSE (5 mg/ml) and isotype control were used. The staining was analyzed using a Nikon inverted microscope and an Image Pro Plus image analysis software (Media Cybernetics).
Citrated blood was obtained from women with uncomplicated pregnancies (n=14) and preeclampsia (n=14) and also from pregnant mice before termination of pregnancy. H2S levels were measured as described previously with modification.^32 Briefly, 75 μl plasma was mixed with 250 μl of 1% (w/v) zinc acetate and 425 μl water, followed by […] 50% trichloroacetic acid to remove protein. Then 133 μl 20 mM N-dimethyl-p-phenylenediamine sulphate in 7.2 mM HCl and 133 μl 30 μM FeCl3 in 1.2 mM HCl were added to the mixture. After 10 min incubation at room temperature, reaction mixtures were pelleted by centrifugation at 10,000 g (2 minutes). The absorbance of the resulting solution was measured at 670 nm with a spectrophotometer in a 96-well plate. The concentration of H2S in the solution was calculated against a calibration curve of sodium hydrogen sulfide.
Three groups (5-8/group) of pregnant C57Bl6/J mice were treated daily with vehicle or 25 mg/kg PAG or 50 mg/kg PAG from E8.5 to E16.5. After 8 days of treatment, plasma was pooled from all animals in each treatment group, and pooled H2S levels were measured. […] The labyrinth zone consists of cells of trophoblast and mesodermal origin that together undergo branching morphogenesis, resulting in a large surface area for nutrient and gas exchange between the mother and fetus. The maternal blood space is lined by trophoblast. During placental development, this space becomes progressively more finely divided.^37, 38 Using isolectin B4 to highlight the fetal endothelial cell,^39 we compared the anatomical features of the labyrinth zone in vehicle and 50 mg/kg PAG-treated mice.

HTR-8/SVneo cells = assay: Trophoblast cell invasion assay (Matrigel-coated transwell); type: cell-based, human; conditions: PAG 50 μM, 24 h, p<0.01, n=3
Method: The human extravillus trophoblast (EVT) cell line HTR-8/SVneo was a kind gift from Professor Charles H. Graham, Queen's University, Kingston, Ontario, Canada. The invasion assay was performed as described previously, with modification.30 Briefly, HTR-8/SVneo (50,000) cells treated with or without PAG were placed in the upper chamber of Matrigel-coated (1 mg/ml) transwell inserts (8 μm pore, Falcon, BD, UK) and housed in a 24-well plate. The cells were allowed to invade through the reconstituted extracellular matrix for 24 h in the presence or absence of 50 µM PAG (n=3). Trophoblast cells located on the under-surface of the transwell membrane were fixed with ice-cold methanol and stained with hematoxylin, and brightfield images were obtained with Nikon inverted microscope and Image Pro Plus image analysis software (Media Cybernetics). Transwell migration assays of HTR-8/SVneo cells in the presence of 50 µM of PAG were performed as described in Methods. (A) Migrated HTR-8/SVneo were stained with hematoxylin, and brightfield images were captured. (B) Cell numbers were counted, and results are expressed as a percentage of the control (n=3).

HUVEC = conditions: preeclamptic plasma, 100 mM NaHS
Method: The spontaneous formation of capillary-like structures by HUVECs on growth factor-reduced Matrigel (Becton Dickinson, Bedford, Mass.), was used to assess angiogenic potential. HUVECs were treated with plasma samples collected from pregnancies complicated by preeclampsia and uncomplicated pregnancies with or without H2S donor (NaHS) and incubated at 37° C. for 24 hours. Ninety-six well plates were coated with Matrigel (10 mg/ml) according to the manufacturer's instructions. HUVECs (1×10^4 cells/well) were then seeded on Matrigel-coated plates.

[2] = GYY4137 0.25 mg/kg with 50 mg/kg PAG
[3] = GYY4137 in mice treated with 50 mg/kg PAG

In the case of `C#CCC(N)C(=O)O` (racemic) [PAG, DL-propargylglycine], the blood pressure (rat) is given as “elevated”, the PlGF production [1] is given as “significantly reduced” and the “sEng levels in conditioned medium” value [1] is given as “remained unchanged”. For the same compound, the “sFlt-1 levels in conditioned medium” value [1] was “remained unchanged”, the “fetal vasculature of the placenta (isolectin B4)” value (pregnant C57Bl6/J mice; 50 mg/kg PAG) was “irregular branching” and the “plasma levels of sEng” value (pregnant C57Bl6/J mice; 50 mg/kg PAG alone) was “induced”. The “plasma levels of sFlt-1” value (pregnant C57Bl6/J mice; 50 mg/kg PAG alone) was “induced”, the “maternal blood space in the labyrinth zone, versus vehicle controls” value (pregnant C57Bl6/J mice; 50 mg/kg PAG, blinded histology of placental sections) was “appeared larger” and the “circulating H2S levels” value (pregnant C57Bl6/J mice; 25 or 50 mg/kg PAG i.p. daily E8.5 to E16.5, pooled plasma) was “dose-dependent decrease”. The “proteinuria (renal pathological changes)” value (pregnant C57Bl6/J mice; PAG treated animals) was “not noted”, the “circulating liver enzyme aspartate transaminase (AST), liver damage” value (pregnant C57Bl6/J mice; PAG-treated animals) was “increased level” and the mean blood pressure (pregnant C57Bl6/J mice; high dose PAG (50 mg/kg), vehicle control 64.74±2.04) was 74.40±4.61. The “reduction of plasma H2S levels” value (pregnant C57Bl6/J mice; higher dose PAG (50 mg/kg), after 8 days of treatment, pooled plasma) was “approximately 50%”, the fetal weight (pregnant C57Bl6/J mice; higher dose of PAG) was “significantly decreased” and the “cell invasion compared with vehicle control” value (HTR-8/SVneo cells) was “significant reduction”.

For `C1COCCN1.COc1ccc(P(=S)(S)N2CCOCC2)cc1` (centres unmarked) [GYY4137, morpholin-4-ium 4 methoxy phenyl(morpholino)phosphinodithiolate], the “all the changes of PAG-treated pregnant mice (blood pressure, AST)” value (pregnant C57Bl6/J mice; [2]) was “abrogated”, the “fetal growth compromised by the CSE inhibitor” value (pregnant C57Bl6/J mice; [2]) was “restored” and the “plasma levels of sEng induced by CSE inhibition” value (pregnant C57Bl6/J mice; [3]) was “inhibited”. For the same compound, the “plasma levels of sFlt-1 induced by CSE inhibition” value (pregnant C57Bl6/J mice; [3]) was “inhibited”, the “blood pressure compromised by PAG-treatment” value (pregnant C57Bl6/J mice; GYY4137 with PAG) was “rescued” and the “liver function compromised by PAG-treatment” value (pregnant C57Bl6/J mice; GYY4137 with PAG) was “rescued”. For the same compound, the “placental vascular defect due to inhibition of CSE activity” value (pregnant C57Bl6/J mice; GYY4137 with PAG 50 mg/kg) was “restored”.

In the case of `[Na+].[SH-]` [NaHS, sodium hydrogen sulfide], the “ability of HUVECs to form tube-like structure” value (HUVEC) is reported as “partially restored”.
